Some results are limits rather than exact numbers.

The values below come from patent US20260265238A1, “COMPOUNDS AND PHARMACEUTICAL COMPOSITIONS THAT DEGRADE SWI/SNF-RELATED MATRIX-ASSOCIATED ACTIN-DEPENDENT REGULATOR OF CHROMATIN SUBFAMILY A” (Plexium, Inc., priority 2023, published 2026).

The target in assay [1] is T1, SMARCA2-HiBiT HeLa cells (protein which is expressed from the SMARCA2 gene) (Homo sapiens, UniProt P51531).
T1 construct: protein which is expressed from the SMARCA2 and SMARCA4 genes; host or cells: HeLa (SMARCA2-HiBiT engineered line)
T1 sequence (P51531 whole entry): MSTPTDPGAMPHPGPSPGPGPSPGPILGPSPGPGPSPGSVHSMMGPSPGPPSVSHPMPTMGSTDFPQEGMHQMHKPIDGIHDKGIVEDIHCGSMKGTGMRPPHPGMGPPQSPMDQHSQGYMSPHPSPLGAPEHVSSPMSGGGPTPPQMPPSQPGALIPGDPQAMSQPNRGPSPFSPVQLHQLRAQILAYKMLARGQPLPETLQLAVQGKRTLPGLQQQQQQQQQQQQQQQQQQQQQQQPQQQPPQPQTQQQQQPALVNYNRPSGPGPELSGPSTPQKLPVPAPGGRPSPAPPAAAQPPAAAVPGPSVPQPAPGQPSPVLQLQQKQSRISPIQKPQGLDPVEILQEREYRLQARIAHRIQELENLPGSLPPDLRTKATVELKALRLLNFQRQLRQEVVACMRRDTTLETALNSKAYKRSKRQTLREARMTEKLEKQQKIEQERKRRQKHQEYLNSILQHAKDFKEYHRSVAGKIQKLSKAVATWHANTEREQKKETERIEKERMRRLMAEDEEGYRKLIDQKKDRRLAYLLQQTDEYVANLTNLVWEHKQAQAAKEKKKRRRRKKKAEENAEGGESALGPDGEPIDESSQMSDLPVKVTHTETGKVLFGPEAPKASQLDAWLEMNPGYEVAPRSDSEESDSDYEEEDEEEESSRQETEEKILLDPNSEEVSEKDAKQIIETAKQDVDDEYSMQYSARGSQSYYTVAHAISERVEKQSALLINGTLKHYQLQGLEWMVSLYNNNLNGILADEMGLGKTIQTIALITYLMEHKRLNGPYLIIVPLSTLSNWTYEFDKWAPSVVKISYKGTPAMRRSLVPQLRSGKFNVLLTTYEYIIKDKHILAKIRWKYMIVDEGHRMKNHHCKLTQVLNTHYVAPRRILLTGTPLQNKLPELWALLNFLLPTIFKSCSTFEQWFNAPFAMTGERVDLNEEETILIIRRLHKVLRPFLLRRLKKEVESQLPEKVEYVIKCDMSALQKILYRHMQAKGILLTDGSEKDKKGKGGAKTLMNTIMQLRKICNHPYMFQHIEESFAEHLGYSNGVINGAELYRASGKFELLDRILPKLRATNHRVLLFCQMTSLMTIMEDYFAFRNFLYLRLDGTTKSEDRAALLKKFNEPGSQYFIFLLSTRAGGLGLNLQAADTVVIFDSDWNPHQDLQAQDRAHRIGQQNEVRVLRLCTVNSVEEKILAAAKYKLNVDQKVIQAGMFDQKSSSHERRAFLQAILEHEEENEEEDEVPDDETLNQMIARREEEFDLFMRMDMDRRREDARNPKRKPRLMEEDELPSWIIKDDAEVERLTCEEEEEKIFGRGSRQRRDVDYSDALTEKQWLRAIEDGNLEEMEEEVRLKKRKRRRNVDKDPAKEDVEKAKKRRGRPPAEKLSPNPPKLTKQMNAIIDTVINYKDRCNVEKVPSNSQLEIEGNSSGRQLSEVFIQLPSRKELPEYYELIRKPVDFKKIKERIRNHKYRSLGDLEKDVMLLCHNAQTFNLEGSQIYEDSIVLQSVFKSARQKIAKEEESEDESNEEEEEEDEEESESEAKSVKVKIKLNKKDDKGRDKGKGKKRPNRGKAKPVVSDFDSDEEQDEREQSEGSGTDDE
Description: SMARCA2 degradation assay (HiBiT-fusion HeLa cell line, 24 h, luminescence). Type of assay: cell-based. The method, boiled down:
(§1)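 In this 24-hour cellular degradation readout, HiBiT-tagged HeLa lines received compound at up to typically 10 μM down to 300 pM in 10 points. After lysis with LgBiT and substrate, luminescence signals were used to build dose-response curves for DC50.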

The target in assay [2] is T2, SMARCA4-HiBiT HeLa cells (protein which is expressed from the SMARCA4 gene) (Homo sapiens, UniProt P51532).
T2 construct: protein which is expressed from the SMARCA2 and SMARCA4 genes; host or cells: HeLa (SMARCA4-HiBiT engineered line)
T2 sequence (P51532 whole entry): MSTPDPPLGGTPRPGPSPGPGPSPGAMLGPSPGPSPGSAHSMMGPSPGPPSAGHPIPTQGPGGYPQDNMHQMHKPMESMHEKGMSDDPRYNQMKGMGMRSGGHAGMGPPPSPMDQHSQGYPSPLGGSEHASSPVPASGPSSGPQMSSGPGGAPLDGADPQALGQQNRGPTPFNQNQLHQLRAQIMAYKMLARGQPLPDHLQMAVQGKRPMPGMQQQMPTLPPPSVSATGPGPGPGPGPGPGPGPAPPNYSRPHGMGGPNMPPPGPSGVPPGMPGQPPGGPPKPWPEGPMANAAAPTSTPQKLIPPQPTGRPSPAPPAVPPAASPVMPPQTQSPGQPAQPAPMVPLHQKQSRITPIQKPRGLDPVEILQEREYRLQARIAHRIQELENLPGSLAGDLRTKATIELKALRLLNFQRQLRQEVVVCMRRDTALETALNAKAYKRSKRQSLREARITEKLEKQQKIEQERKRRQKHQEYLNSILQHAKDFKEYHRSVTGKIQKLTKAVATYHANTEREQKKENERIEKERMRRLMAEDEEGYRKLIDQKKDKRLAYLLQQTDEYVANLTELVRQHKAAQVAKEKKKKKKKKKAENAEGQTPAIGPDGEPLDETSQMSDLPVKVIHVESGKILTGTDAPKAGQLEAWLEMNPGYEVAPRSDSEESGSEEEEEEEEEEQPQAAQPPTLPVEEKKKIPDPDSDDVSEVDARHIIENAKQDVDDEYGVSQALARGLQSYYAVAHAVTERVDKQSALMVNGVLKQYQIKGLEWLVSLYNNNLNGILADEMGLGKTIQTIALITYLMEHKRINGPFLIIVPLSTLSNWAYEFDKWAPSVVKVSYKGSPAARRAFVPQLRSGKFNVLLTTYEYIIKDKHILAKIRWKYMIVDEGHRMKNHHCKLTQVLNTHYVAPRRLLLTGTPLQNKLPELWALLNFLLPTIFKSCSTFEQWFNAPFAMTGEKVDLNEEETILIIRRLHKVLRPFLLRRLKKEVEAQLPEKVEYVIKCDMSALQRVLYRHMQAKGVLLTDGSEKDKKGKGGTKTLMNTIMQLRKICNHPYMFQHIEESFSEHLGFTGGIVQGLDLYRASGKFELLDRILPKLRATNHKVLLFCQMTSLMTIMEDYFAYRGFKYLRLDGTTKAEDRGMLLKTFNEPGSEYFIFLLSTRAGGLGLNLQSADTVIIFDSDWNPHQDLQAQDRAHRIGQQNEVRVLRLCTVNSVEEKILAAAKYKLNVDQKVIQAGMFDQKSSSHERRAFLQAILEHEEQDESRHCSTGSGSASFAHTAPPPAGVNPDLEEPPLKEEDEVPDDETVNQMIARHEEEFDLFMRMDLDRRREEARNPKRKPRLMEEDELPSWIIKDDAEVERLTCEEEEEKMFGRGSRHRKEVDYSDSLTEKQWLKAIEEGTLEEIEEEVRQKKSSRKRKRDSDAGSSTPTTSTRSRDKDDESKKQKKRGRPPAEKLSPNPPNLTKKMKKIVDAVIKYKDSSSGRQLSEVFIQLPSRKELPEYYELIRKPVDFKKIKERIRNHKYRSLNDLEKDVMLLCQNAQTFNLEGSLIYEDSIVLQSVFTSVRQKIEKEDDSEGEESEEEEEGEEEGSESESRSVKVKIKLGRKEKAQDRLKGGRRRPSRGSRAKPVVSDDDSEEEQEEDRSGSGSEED
The assay is described as follows: SMARCA4 degradation assay (HiBiT-fusion HeLa cell line, 24 h, luminescence). The assay is classed as cell-based. The method, boiled down: as §1
Background: The HiBiT peptide binds its large partner to form an active luciferase.

As usually defined, the DC50 is the midpoint of the concentration-degradation curve. One may read the inhibition as the relative decrease from the control value, in per cent. Low values mean a weak effect, high ones a strong effect. Take `Cc1c(C(=O)NCC#Cc2nc(N(C)C)cc(N3CCCN(c4cc(-c5ccccc5O)nnc4N)CC3)n2)nn(C)c1C` [Compound P-140, N-(3-(4-(4-(3-amino-6-(2-hydroxyphenyl)pyridazin-4-yl)-1,4-diazepan-1-yl)-6-(dimethylamino)pyrimidin-2-yl)prop-2-yn-1-yl)-1,4,5-trimethyl-1H-pyrazole-3-carboxamide]: the DC50 in assay [1] and in assay [2] was 500 to 5000 nM in each case. The “SMARCA2 % Degradation @ 1 μM” value in assay [1] (@ 1 μM) is “++ (++=30-70%)”. The compound also returned an inhibition at 1 µM in assay [2] (@ 1 μM) of 30 to 70%.
`CCC1CN(CC#Cc2nccc(N3CCCN(c4cc(-c5ccccc5O)nnc4N)CC3)n2)c2ccccc2O1` (stereo not shown) [Compound P-360, 0-[6-amino-5-(4-{2-[3-(2-ethyl-3,4-dihydro-2H-1,4-benzoxazin-4-yl)-1-propynyl]-4-pyrimidinyl}-1,4-diazepan-1-yl)-3-pyridazinyl]phenol]: the DC50 in assay [1] and in assay [2] was 50 to 500 nM in each case. In addition, the “SMARCA2 % Degradation @ 1 μM” value in assay [1] (@ 1 μM) is given as “++ (++=30-70%)”. Also, the inhibition at 1 µM in assay [2] (@ 1 μM) was in the range of 30 to 70%.
On to `C[C@@H]1CCN(c2cc(-c3ccccc3O)nnc2N)CCN1c1ccnc(C#CCN2CC3CC(C2)O3)n1` [Compound P-179, o-{5-[(R)-5-methyl-4-(2-{3-(6-oxa-3-azabicyclo[3.1.1]hept-3-yl)-1-propynyl}-4-pyrimidinyl)-1,4-diazepan-1-yl]-6-amino-3-pyridazinyl}phenol], for which the DC50 in assay [1] and in assay [2] was 50 to 500 nM each time. Besides, in assay [1] (@ 1 μM), the “SMARCA2 % Degradation @ 1 μM” value is given as “+++ (+++=>70%)”. This compound yielded an inhibition at 1 µM in assay [2] (@ 1 μM) of 30 to 70%.
Regarding `CC1CC(C)N1CC#Cc1cc(N2CCN(c3cc(-c4ccccc4O)nnc3N)CC[C@H]2C)ccn1` (stereo partly drawn) [Compound P-418, 0-{5-[(R)-4-{2-[3-(2,4-dimethyl-1-azetidinyl)-1-propynyl]-4-pyridy1}-5-methyl-1,4-diazepan-1-yl]-6-amino-3-pyridazinyl}phenol], the DC50 in assay [1] and in assay [2] was less than 50 nM in each case. Besides, the “SMARCA2 % Degradation @ 1 μM” value in assay [1] (1 μM) is “+++ (+++=>70%)”. In assay [2] (1 μM), this compound returned an inhibition at 1 µM of 30 to 70%.
On to `Nc1nnc(-c2ccccc2O)cc1N1CC2CCC(C1)N2c1ccnc(C#CCn2nnc3ccccc32)n1` [Compound P-132, 2-(5-(8-(2-(3-(1H-benzo[d][1,2,3]triazol-1-yl)prop-1-yn-1-yl)pyrimidin-4-yl)-3,8-diazabicyclo| 3.2.1 |octan-3-yl)-6-aminopyridazin-3-yl)phenol], for which the DC50 in assay [1] and in assay [2] was 500 to 5000 nM each time. Moreover, the “SMARCA2 % Degradation @ 1 μM” value in assay [1] (@ 1 μM) is listed as “++ (++=30-70%)”. For the same compound, in assay [2] (@ 1 μM), the inhibition at 1 µM lay within 30 to 70%.
For `C[C@@H]1CN(CC#Cc2nccc(N3CCCN(c4cc(-c5ccccc5O)nnc4N)CC3)n2)CCO1` [Compound P-313, 0-{5-[4-(2-{3-[(R)-2-methyl-4-morpholinyl]-1-propynyl}-4-pyrimidinyl)-1,4-diazepan-1-yl]-6-amino-3-pyridaziny1}phenol], the DC50 in assay [1] was 50 to 500 nM; in assay [2], 500 to 5000 nM. In assay [1] (@ 1 μM), the “SMARCA2 % Degradation @ 1 μM” value is “++ (++=30-70%)”. Besides, the inhibition at 1 µM in assay [2] (@ 1 μM) was less than 30%.
The like results for `Nc1nnc(-c2ccccc2O)cc1N1CC2CCC(C1)N2c1ccnc(C#CCNc2ncco2)n1` [Compound P-106, 2-(6-amino-5-(8-(2-(3-(oxazol-2-ylamino)prop-1-yn-1-yl)pyrimidin-4-yl)-3,8-diazabicyclo[3.2.1]octan-3-yl)pyridazin-3-yl)phenol] were, in that order, 500 to 5000 nM, 500 to 5000 nM, “++ (++=30-70%)” and 30 to 70%.
The like results for `Cc1c(C(=O)NCC#Cc2nccc(N3CCN(c4cc(-c5ccccc5O)nnc4N)CC3)n2)nn(C)c1C` [Compound P-8, N-[3-(4-{4-[3-amino-6-(2-hydroxyphenyl)pyridazin-4-yl]piperazin-1-yl}pyrimidin-2-yl)prop-2-yn-1-yl]-1,4,5-trimethyl-1H-pyrazole-3-carboxamide] were, in that order, 50 to 500 nM, less than 50 nM, “++ (++=30-70%)” and 30 to 70%.
The like results for `CNCC#Cc1nccc(N2CCN(c3cc(-c4ccccc4O)nnc3N)CC[C@H]2C)n1` [Compound P-297, 0-{5-[(R)-5-methyl-4-{2-[3-(methylamino)-1-propynyl]-4-pyrimidinyl}-1,4-diazepan-1-yl]-6-amino-3-pyridazinyl} phenol] were, in that order, 50 to 500 nM, less than 50 nM, “++ (++=30-70%)” and less than 30%.
With `Cc1nn2ccn(CC#Cc3nccc(N4C5CCC4CN(c4cc(-c6ccccc6O)nnc4N)C5)n3)c(=O)c2c1C` [Compound P-103, 5-(3-(4-(3-(3-amino-6-(2-hydroxyphenyl)pyridazin-4-yl)-3,8-diazabicyclo[3.2.1]octan-8-yl)pyrimidin-2-yl)prop-2-yn-1-yl)-2,3-dimethylpyrazolo[1,5-a]pyrazin-4(5H)-one], the DC50 in assay [1] and in assay [2] was 50 to 500 nM in each case. In addition, the “SMARCA2 % Degradation @ 1 μM” value in assay [1] (@ 1 μM) was “+++ (+++=>70%)”. The compound also displayed an inhibition at 1 µM in assay [2] (@ 1 μM) of 30 to 70%.
Consider `CC(C#Cc1nccc(N2CCN(c3cc(-c4ccccc4O)nnc3N)CC[C@H]2C)n1)N(C)C` (stereo partly drawn) [Compound P-254, o-{5-[(R)-4-{2-[3-(dimethylamino)-1-butynyl]-4-pyrimidinyl}-5-methyl-1,4-diazepan-1-yl]-6-amino-3-pyridazinyl}phenol], for which the DC50 in assay [1] and in assay [2] was less than 50 nM each time. In addition, the “SMARCA2 % Degradation @ 1 μM” value in assay [1] (@ 1 μM) is on record as “++ (++=30-70%)”. Further, the inhibition at 1 µM in assay [2] (@ 1 μM) was 30 to 70%.
For the compound `Nc1nnc(-c2ccccc2O)cc1N1CCN(c2ccnc(C#CCNC(=O)c3cc4n(n3)CCC4)n2)CC1` [Compound P-59, N-(3-(4-(4-(3-amino-6-(2-hydroxyphenyl)pyridazin-4-yl)piperazin-1-yl)pyrimidin-2-yl)prop-2-yn-1-yl)-5,6-dihydro-4H-pyrrolo[1,2-b]pyrazole-2-carboxamide], the values for the DC50 in assay [1] and in assay [2] were 50 to 500 nM and greater than 5000 nM, respectively. For the same compound, in assay [1] (@ 1 μM), the “SMARCA2 % Degradation @ 1 μM” value is on record as “++ (++=30-70%)”.
For the compound `C[C@@H]1CCN(c2cc(-c3ccccc3O)nnc2N)CCN1c1ccnc(C#CCN2CC(F)(F)[C@@H]2C)n1` [Compound P-270, 0-{5-[(R)-4-(2-{3-[(S)-3,3-difluoro-2-methyl-1-azetidinyl]-1-propyny1}-4-pyrimidinyl)-5-methyl-1,4-diazepan-1-yl]-6-amino-3-pyridaziny1} phenol], the DC50 in assay [1] and in assay [2] was 50 to 500 nM in each case. Moreover, the “SMARCA2 % Degradation @ 1 μM” value in assay [1] (@ 1 μM) is “++ (++=30-70%)”. In assay [2] (@ 1 μM), the inhibition at 1 µM was 30 to 70%.
Turning to `C[C@@H]1CCN(c2cc(-c3ccccc3O)nnc2N)CCN1c1ccc(C#N)c(C#CCN2CCC(F)(F)CC2)n1` [Compound P-416, 6-{(R)-4-[3-amino-6-(o-hydroxyphenyl)-4-pyridazinyl]-7-methyl-1,4-diazepan-1-yl}-2-[3-(4,4-difluoro-1-piperidyl)-1-propynyl]nicotinonitrile], the DC50 in assay [1] and in assay [2] was 50 to 500 nM throughout. Besides, the “SMARCA2 % Degradation @ 1 μM” value in assay [1] (1 μM) is “+++ (+++=>70%)”. For the same compound, the inhibition at 1 µM in assay [2] (1 μM) is greater than 70%.
